In patent US9505734B2, “Phenyl C-glucoside derivative containing deoxyglucose structure, preparation method and use thereof” (Tianjin Institute of Pharmaceutical Research, priority 2012, dated 2016):
Like-named read-outs stand apart in the source and are kept apart here.

Experiments:
[1] = test system: SD rats (type 2 diabetes model); test: model for rat urine glucose excretion (glucose-oxidase method); assay type: in vivo; settings: type 2 diabetes model SD rats, 6 mg/kg intragastrically, glucose 2 g/kg at 0.5 h, urine collected 0-12 h
Procedure: The health SD rats are injected intraperitoneally with multiple low doses of streptozotocin for modeling (type 2 diabetes model) after feeding with high-fat and high-sucrose diet, and the content of blood glucose is measured before and after modeling. After the modeling successful, the rats for modeling are randomly divided (8 rats/group) into one blank group (administering the same volume of 0.5% CMC sodium solution) and several groups for compounds to be tested (6 mg/kg) according to the content of 24-hour urine glucose and the body weight. Rats in each group are fasted for 16 hours before experiment. The experimental rats are administered intragastrically with glucose (2 g/kg) at 0.5 h after intragastrical administration with compounds to be tested. The urine is collected at the time-period of 0-12 h after administration, and the urine glucose values are measured at each time-period by glucose-oxidase method.
The inhibiting activity of the cocrystal of I-D1-6 and L-proline on SGLT2 is measured by the model for rat urine glucose excretion.
The health SD rats are injected intraperitoneally with multiple low doses of streptozotocin for modeling (type 2 diabetes model) after feeding with high-fat and high-sucrose diet for one month, and the content of blood glucose is measured before and after modeling. After the modeling successful, the rats for modeling are randomly divided (8 rats/group) into one blank group (administering the same volume of 0.5% CMC sodium solution) and groups of tested compound (6 mg/kg) according to the content of 24-hour urine glucose and the body weight. Rats in each group are fasted for 16 hours before experiment. The experimental rats are administered intragastrically with the glucose (2 g/kg) at 0.5 h after intragastrical administration with the cocrystal of I-D1-6 and L-proline prepared in Example 138. The urine is collected at the time-period of 0-12 h after administration, and the urine glucose values are measured at each time-period by glucose-oxidase method.

[2] = mice, 10 mice/group, single intragastric dose 750 mg/kg, within one week
[3] = both, mouse, in vivo, 750 mg/kg, 1 week
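Wherever Behaviors after administration with the compound to be tested (deaths) is given: mice weighing 18–20 g, both sexes in equal proportion within each group.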

Procedure for Mice: Mice (18-20 g) with equal numbers of male and female are divided into groups (10 mice/group), after normal feeding for 3 days, fasted for 12 hours, and then administered intragastrically with a single dose of 750 mg/kg compound respectively.

SMILES | Urine glucose excretion (mg/200 g body weight of the rat) [1] | Behaviors after administration with the compound to be tested (deaths) (Mice; [2]) [dead] | further results
CCc1ccc(Cc2c(Cl)ccc3c2COC32OC(CO)C(O)CC2O)cc1 (stereo not shown) [drawing 246] | 712 mg/200 g body weight of the rat |  | 
CCOc1ccc(Cc2cc(C3SC(CO)CC(O)C3O)c(OC)cc2C)cc1 (stereo not shown) [drawing 247] | 677 mg/200 g body weight of the rat |  | 
CCc1ccc(Cc2c(Cl)ccc3c2COC32CC(O)C(O)C(CO)O2)cc1 (stereo not shown) [drawing 248] | 717 mg/200 g body weight of the rat |  | 
CCOc1ccc(Cc2cc(C3CC(O)C(O)C(CO)S3)c(OC)cc2C)cc1 (stereo not shown) [drawing 249] | 786 mg/200 g body weight of the rat |  | 
CCOc1ccc(Cc2cc([C@]34OC[C@](C)(O3)[C@@H](O)[C@H](O)[C@H]4O)ccc2Cl)cc1 [drawing 250] | 665 mg/200 g body weight of the rat |  | 
CCOc1ccc(Cc2cc([C@@]34OC[C@@](CO)(C[C@H](O)[C@H]3O)O4)ccc2Cl)cc1 [drawing 251] | 751 mg/200 g body weight of the rat |  | 
CCOc1ccc(Cc2cc(C3OC(C)CC(O)C3O)ccc2Cl)cc1 (stereo not shown) [drawing 252] | 765 mg/200 g body weight of the rat |  | 
CC1OC(c2ccc(F)c(Cc3cc4ccccc4s3)c2)CC(O)C1O (stereo not shown) [drawing 253] | 656 mg/200 g body weight of the rat |  | 
CCc1ccc(Cc2c(Cl)ccc3c2COC32CC(O)CC(CO)O2)cc1 (stereo not shown) [drawing 254] | 677 mg/200 g body weight of the rat |  | 
CCc1ccc(Cc2c(Cl)ccc3c2COC32OC(C)C(O)C(O)C2O)cc1 (stereo not shown) [drawing 255] | 755 mg/200 g body weight of the rat |  | 
CCOc1ccc(Cc2cc(C3SC(CO)C(O)CC3O)c(OC)cc2C)cc1 (stereo not shown) [drawing 256] | 766 mg/200 g body weight of the rat |  | 
CCOc1ccc(Cc2cc(C3SC(CO)C(O)CC3O)c(OC)cc2C)cc1 (stereo not shown) [drawing 257] | 728 mg/200 g body weight of the rat |  | 
CCOc1ccc(Cc2cc(C3SC(C)C(O)C(O)C3O)c(OC)cc2C)cc1 (stereo not shown) [drawing 258] | 698 mg/200 g body weight of the rat |  | 
CCOc1ccc(Cc2cc([C@]34C[C@@H](O)[C@H](O)[C@](CO)(CO3)O4)ccc2Cl)cc1 [drawing 259] | 565 mg/200 g body weight of the rat |  | 
CCOc1ccc(Cc2cc([C@]34OC[C@](CO)(O3)[C@@H](O)C[C@H]4O)ccc2Cl)cc1 [drawing 260] | 711 mg/200 g body weight of the rat |  | 
Cc1ccc(C2OC(C)C(O)CC2O)cc1Cc1ccc(-c2ccc(F)cc2)s1 (stereo not shown) [drawing 261] | 701 mg/200 g body weight of the rat |  | 
OCC1CCC(O)C(c2ccc(Cl)c(Cc3ccc(O[C@H]4CCOC4)cc3)c2)O1 (stereo partly shown) [drawing 262] | 721 mg/200 g body weight of the rat |  | 
CCOc1ccc(Cc2cc(C3CCC(O)C(CO)S3)c(OC)cc2C)cc1 (stereo not shown) [drawing 263] | 730 mg/200 g body weight of the rat |  | 
CCOc1ccc(Cc2cc(C3OC(CO)C(O)C(O)C3O)ccc2Cl)cc1 (stereo not shown) [drawing 264] |  | 8 | 
OCC1OC(c2ccc(F)c(Cc3cc4ccccc4s3)c2)C(O)C(O)C1O (stereo not shown) [drawing 265] |  |  | Behaviors after administration with the compound to be tested (deaths) (Mice; [3]): 7 dead
CCc1ccc(Cc2c(Cl)ccc3c2COC32OC(CO)C(O)C(O)C2O)cc1 (stereo not shown) [drawing 266] |  | 7 | 
CCOc1ccc(Cc2cc([C@]34OC[C@](CO)(O3)[C@@H](O)[C@H](O)[C@H]4O)ccc2Cl)cc1 [drawing 267] |  | 9 | 
CCCOc1ccc(Cc2cc(C3OC(C)C(O)C(O)C3O)ccc2Cl)cc1 (stereo not shown) [drawing 268] |  | 6 | 

SMILES | Urine glucose excretion (mg/200 g body weight of the rat) [1] | Behaviors after administration with the compound to be tested (deaths) (Mice; [2]) [dead] | further results
CCOc1ccc(Cc2cc(C3OC(CO)CC(O)C3O)ccc2Cl)cc1 (stereo not shown) [drawing 269] |  | 2 | 
CCOc1ccc(Cc2cc(C3CC(O)C(O)C(CO)O3)ccc2Cl)cc1 (stereo not shown) [drawing 270] |  | 2 | 
Cc1ccc(C2OC(CO)CC(O)C2O)cc1Cc1ccc(-c2ccc(F)cc2)s1 (stereo not shown) [drawing 271] |  | 3 | 
Cc1ccc(C2CC(O)C(O)C(CO)O2)cc1Cc1ccc(-c2ccc(F)cc2)s1 (stereo not shown) [drawing 272] |  | 5 | 
CC1OC(c2ccc(F)c(Cc3cc4ccccc4s3)c2)C(O)C(O)C1O (stereo not shown) [drawing 273] |  | 2 | 
OCC1OC(c2ccc(Cl)c(Cc3ccc(O[C@H]4CCOC4)cc3)c2)C(O)CC1O (stereo partly shown) [drawing 274] |  | 0 | 
Cc1ccc(C2OC(CO)C(O)C(O)C2O)cc1Cc1ccc(-c2ccc(F)cc2)s1 (stereo not shown) [drawing 275] |  | 9 | 
OCC1OC(c2ccc(Cl)c(Cc3ccc(O[C@H]4CCOC4)cc3)c2)C(O)C(O)C1O (stereo partly shown) [drawing 276] |  | 7 | 
CCOc1ccc(Cc2cc(C3SC(CO)C(O)C(O)C3O)c(OC)cc2C)cc1 (stereo not shown) [drawing 277] |  |  | Behaviors after administration with the compound to be tested (deaths) (Mice; [3]): 10 dead
COc1ccc(Cc2cc(C3OC(C)C(O)C(O)C3O)ccc2Cl)cc1 (stereo not shown) [drawing 278] |  | 7 | 
CCOc1ccc(Cc2cc(C3OC(C)C(O)C(O)C3O)ccc2Cl)cc1 (stereo not shown) [drawing 279] |  | 1 | 
CCOc1ccc(Cc2cc(C3OC(CO)C(O)CC3O)ccc2Cl)cc1 (stereo not shown) [drawing 280] |  | 3 | 
Cc1ccc(C2OC(C)C(O)C(O)C2O)cc1Cc1ccc(-c2ccc(F)cc2)s1 (stereo not shown) [drawing 281] |  | 4 | 
Cc1ccc(C2OC(CO)C(O)CC2O)cc1Cc1ccc(-c2ccc(F)cc2)s1 (stereo not shown) [drawing 282] |  | 3 | 
OCC1OC(c2ccc(F)c(Cc3cc4ccccc4s3)c2)C(O)CC1O (stereo not shown) [drawing 283] |  | 0 | 
OCC1CC(O)C(O)C(c2ccc(F)c(Cc3cc4ccccc4s3)c2)O1 (stereo not shown) [drawing 284] |  | 1 | 
OCC1OC(c2ccc(F)c(Cc3cc4ccccc4s3)c2)CC(O)C1O (stereo not shown) [drawing 285] |  | 3 | 
CC1OC(c2ccc(Cl)c(Cc3ccc(O[C@H]4CCOC4)cc3)c2)C(O)C(O)C1O (stereo partly shown) [drawing 286] |  | 1 | 
OCC1OC(c2ccc(Cl)c(Cc3ccc(O[C@H]4CCOC4)cc3)c2)CC(O)C1O (stereo partly shown) [drawing 287] |  | 2 | 
CCc1ccc(Cc2c(Cl)ccc3c2COC32OC(CO)C(O)CC2O)cc1 (stereo not shown) [drawing 288] |  | 5 | 
CCOc1ccc(Cc2cc(C3SC(CO)CC(O)C3O)c(OC)cc2C)cc1 (stereo not shown) [drawing 289] |  | 1 | 
CCc1ccc(Cc2c(Cl)ccc3c2COC32CC(O)C(O)C(CO)O2)cc1 (stereo not shown) [drawing 290] |  | 2 | 
CCOc1ccc(Cc2cc(C3CC(O)C(O)C(CO)S3)c(OC)cc2C)cc1 (stereo not shown) [drawing 291] |  | 3 | 
